± gives the standard deviation of the averaged measurements.
Legend:
[1] = test system: HSC2 (primary human Schwann cells); assay: drug sensitivity score (DSS, CellTox-Green cytotoxicity, 72 h) (DSS (dimensionless)); higher = more cytotoxic; extreme values may be limits of the assay
In short: (§1)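 MPNST cell lines and primary human Schwann cells were incubated 72 h at 37 °C in 384-well plates holding five 10-fold compound dilutions. CellTox-Green was added before seeding at a final 1:1000 dilution and reported fluorescence from DNA released by disrupted cells. Signals were scaled to vehicle and positive-control wells, and cultures failing plate quality control were dropped. Drug sensitivity score and relative IC50 come from four-parameter logistic fits, with IC50 censored at the top concentration.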

[2] = test system: HSC1 (primary human Schwann cells); assay: as above
In short: as §1

STS26T [3] = assay: as above
In short: as §1

ST8814 [4] = assay: as above
In short: as §1

S1507-2 [5] = assay: as above
In short: as §1

HS-PSS [6] = assay: as above
In short: as §1

YST-1 [7] = assay: drug sensitivity score (DSS, CellTiter-Glo viability, 72 h) (DSS (dimensionless)); higher = more sensitive; extreme values may be limits of the assay
In short: (§2)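 Viability was scored by CellTiter-Glo ATP luminescence, scaled from vehicle to positive-control wells, with duplicates averaged where present. The cells, MPNST lines and primary human Schwann cells at 750–1000 per well, sat 72 h at 37 °C, 5% CO2, in 384-well plates preprinted with each compound at five concentrations in 10-fold steps. Four-parameter logistic fits were run on the data. These fits give drug sensitivity score and relative IC50 censored at the top concentration, and percent inhibition is reported at the top concentration.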

S462 [8] = assay: as above
In short: as §2

[9] = test system: HSC2 (primary human Schwann cells); assay: as above
In short: as §2

[10] = test system: HSC1 (primary human Schwann cells); assay: as above
In short: as §2

STS26T [11] = assay: as above
In short: as §2

ST8814 [12] = assay: as above
In short: as §2

S1507-2 [13] = assay: as above
In short: as §2

HS-Sch-2 [14] = assay: as above
In short: as §2

HS-PSS [15] = assay: as above
In short: as §2

YST-1 [16] = assay: % inhibition of CellTiter-Glo viability at highest tested concentration (72 h), relative to DMSO and benzethonium chloride controls; higher = more inhibition
In short: as §2

S462 [17] = assay: as above
In short: as §2

[18] = test system: HSC2 (primary human Schwann cells); assay: as above
In short: as §2

[19] = test system: HSC1 (primary human Schwann cells); assay: as above
In short: as §2

STS26T [20] = assay: as above
In short: as §2

ST8814 [21] = assay: as above
In short: as §2

S1507-2 [22] = assay: as above
In short: as §2

HS-Sch-2 [23] = assay: as above
In short: as §2

HS-PSS [24] = assay: as above
In short: as §2

`C=CCc1cccc(/C=N/NC(=O)CN2CCN(Cc3ccccc3)CC2)c1O` [PAC-1] (max concentration tested 10000 nM) was tested, and the drug sensitivity score [1] was 0, the drug sensitivity score [2] was 0 and the drug sensitivity score (STS26T [3]) was 0. For the same compound, the drug sensitivity score (ST8814 [4]) was 0.202, the drug sensitivity score (S1507-2 [5]) was 0 and the drug sensitivity score (HS-PSS [6]) was 2.32. The drug sensitivity score (YST-1 [7]) was 4.81, the drug sensitivity score (S462 [8]) was 3.7 ± 0.048 and the drug sensitivity score [9] was 8.57. It also gave a drug sensitivity score [10] of 6.29, a drug sensitivity score (STS26T [11]) of 3.59 and a drug sensitivity score (ST8814 [12]) of 3.36. For the same compound, the drug sensitivity score (S1507-2 [13]) was 2.43 ± 0.66, the drug sensitivity score (HS-Sch-2 [14]) was 10.1 and the drug sensitivity score (HS-PSS [15]) was 6.09. The “% inhibition” value (YST-1 [16]) was 69.4%, the “% inhibition” value (S462 [17]) was 73.6 ± 1.1% and the “% inhibition” value [18] was 85.9%. The “% inhibition” value [19] was 75.5%, the “% inhibition” value (STS26T [20]) was 54.6% and the “% inhibition” value (ST8814 [21]) was 57.7%. For the same compound, the “% inhibition” value (S1507-2 [22]) was 52.7 ± 7.1%, the “% inhibition” value (HS-Sch-2 [23]) was 91.1% and the “% inhibition” value (HS-PSS [24]) was 84.3%.
`COc1cc(Nc2c(C#N)cnc3cc(OCCCN4CCN(C)CC4)c(OC)cc23)c(Cl)cc1Cl` [Bosutinib] (max concentration tested 10000 nM) was tested, and the drug sensitivity score [1] was 3.59, the drug sensitivity score [2] was 1.14 and the drug sensitivity score (STS26T [3]) was 5.46. It also gave a drug sensitivity score (ST8814 [4]) of 7.01, a drug sensitivity score (S1507-2 [5]) of 6.25 ± 1.3 and a drug sensitivity score (HS-PSS [6]) of 5.37. It also gave a drug sensitivity score (YST-1 [7]) of 6.63, a drug sensitivity score (S462 [8]) of 9.09 ± 1.4 and a drug sensitivity score [9] of 9.52. The drug sensitivity score [10] was 7.12, the drug sensitivity score (STS26T [11]) was 9.81 and the drug sensitivity score (ST8814 [12]) was 9.35. It also gave a drug sensitivity score (S1507-2 [13]) of 9.52 ± 0.072, a drug sensitivity score (HS-Sch-2 [14]) of 9.19 and a drug sensitivity score (HS-PSS [15]) of 5.17. For the same compound, the “% inhibition” value (YST-1 [16]) was 100%, the “% inhibition” value (S462 [17]) was 94.85 ± 0.58% and the “% inhibition” value [18] was 86%. The “% inhibition” value [19] was 80%, the “% inhibition” value (STS26T [20]) was 95.4% and the “% inhibition” value (ST8814 [21]) was 96.5%. The “% inhibition” value (S1507-2 [22]) was 96.4 ± 2%, the “% inhibition” value (HS-Sch-2 [23]) was 100% and the “% inhibition” value (HS-PSS [24]) was 99.8%.
`COc1ccccc1S(=O)(=O)Nc1ccc2c(c1)CN(C)C(=O)N2` [PFI-1] (max concentration tested 10000 nM) showed a drug sensitivity score [1] of 0, a drug sensitivity score [2] of 0 and a drug sensitivity score (STS26T [3]) of 0. For the same compound, the drug sensitivity score (ST8814 [4]) was 1.77, the drug sensitivity score (S1507-2 [5]) was 2.07 ± 1.1 and the drug sensitivity score (HS-PSS [6]) was 0. The drug sensitivity score (YST-1 [7]) was 4.93, the drug sensitivity score (S462 [8]) was 4.68 ± 0.9 and the drug sensitivity score [9] was 4.03. The drug sensitivity score [10] was 3.78, the drug sensitivity score (STS26T [11]) was 3.53 and the drug sensitivity score (ST8814 [12]) was 5.94. The drug sensitivity score (S1507-2 [13]) was 6.21 ± 0.6, the drug sensitivity score (HS-Sch-2 [14]) was 5.21 and the drug sensitivity score (HS-PSS [15]) was 2.11. For the same compound, the “% inhibition” value (YST-1 [16]) was 56.6%, the “% inhibition” value (S462 [17]) was 53.6 ± 4.7% and the “% inhibition” value [18] was 53.7%. For the same compound, the “% inhibition” value [19] was 62.2%, the “% inhibition” value (STS26T [20]) was 39.5% and the “% inhibition” value (ST8814 [21]) was 63.6%. The “% inhibition” value (S1507-2 [22]) was 69.2 ± 3.9%, the “% inhibition” value (HS-Sch-2 [23]) was 58.4% and the “% inhibition” value (HS-PSS [24]) was 48.1%.
